Laboratory results published in patent US20260297129A1, “PEPTIDES AS SELECTIVE IL-23 RECEPTOR INHIBITORS” (SANOFI, priority 2023, published 2026).
Values after ≈ are worked out from the molar mass of the structure shown. Read-outs that look alike come from different tables or passages of the source. Numbered stars: 1 amine (or outer) side, 2 acyl side, 3 side chain; on linkers, the order of the positions; unused ones are H or OH. Bridge positions count the residues as written; N and C are the ends. Square brackets hold non-standard residues; d marks the D form. Peptide text beside a SMILES is read from it. * marks the point of attachment. Lys(Me,(CH2)4NMe(CH2)5CO) = CN(CCCCCC(=O)[*:3])CCCCN(C)CCCC[C@H](N[*:1])C(=O)[*:2]; Lys(Me,(CH2)4NMe(CH2)4CO) = CN(CCCCC(=O)[*:3])CCCCN(C)CCCC[C@H](N[*:1])C(=O)[*:2]; Trp(7-Me) = Cc1cccc2c(C[C@H](N)C(=O)O)c[nH]c12; Trp(1-Me) = Cn1cc(C[C@H](N)C(=O)O)c2ccccc21; 2Nal = N[C@@H](Cc1ccc2ccccc2c1)C(=O)O; 3Pal = N[C@@H](Cc1cccnc1)C(=O)O; Aun = NCCCCCCCCCCC(=O)O; Thp = NC1(C(=O)O)CCOCC1; Me2NCH2CH2 = CN(C)CC*; Aib = CC(C)(N)C(=O)O; Sar = CNCC(=O)O

Legend:
[1] = Chemical stability (relative purity loss) of peptide compounds in buffer formulations (Table 6); assay type: physicochemical; conditions: 2° C. and 37° C.
Description: Purity of a peptide batch was determined through UHPLC/MS method A prior to chemical stability measurement.
(§1) For stability assessment, the target concentration was 0.5 mg pure compound/ml. Therefore, solutions from solid samples were prepared in a buffer system at a concentration of 0.5 mg/mL compound. The solid samples were obtained by drying down aliquots of a freshly prepared acetonitrile stock solution using a THERMO SPEEDVAC vacuum centrifuge. The dry down time was 3 hours.
The following buffer systems were applied: • Solubility buffer system A): 50 mM HCl pH 1.2+Acetonitrile (3:1). • Solubility buffer system B): 50 mM phosphate buffer pH 6.5+Acetonitrile (3:1). • Solubility buffer system C): 50 mM phosphate buffer pH 7.4+Acetonitrile (3:1). • Prepared solutions were stored for 24 hours at 2° C. and 37° C.
After this time course, the samples were centrifuged for 15 min at 2500 RCF to create a 1:5 dilution of the supernatant. Then 2 μl of the dilution were analyzed with UHPLC-UV applying method A.
The chemical stability was rated through the relative loss of purity calculated by the equation: […]

[2] = test system: IL-23 induced STAT3 signaling (IL-23 receptor) in HEK-Blue IL-23 cells; experiment: Inhibition of IL-23 induced STAT3 signaling in HEK-Blue IL-23 cells, SEAP reporter (Table 9); assay type: cell-based; conditions: human IL23 0.25 ng/ml, overnight, read-out: Inhibition of IL-23 induced pSTAT3 (IC50 nM)
Description: HEK-Blue™ IL-23 cells (INVIVOGEN) are designed for the detection of bioactive human (hIL-23) and murine IL-23 (mIL-23) by monitoring the activation of the STAT3 pathway. Binding of IL-23 to its receptor on the surface of HEK-Blue™ IL-23 cells triggers a signaling cascade leading to the activation of STAT3 and the subsequent production of secreted embryonic alkaline phosphatase (SEAP). This can be readily assessed using QUANTI-Blue™ Solution, a SEAP detection reagent.
HEK-Blue™ IL-23 cells were cultured as described by INVIVOGEN.
On the first day of assay 10 μL of the HEK-BLUE IL23 cell suspension (final concentration: 10,000 cells/well) and 10 μl of serially diluted peptides solutions were dispensed into a 384-well assay plate. After pre-incubation of the reaction mixtures at 37° C./5% CO2/95% humidity for 60 minutes, 10 μl of the humanIL23 cytokine (final concentration: 0.25 ng/ml) was added to each well for the STAT3 signaling activation. The plate was incubated overnight at 37° C./5% CO2/95% humidity.
On the second day 20 μl per well of QUANTI-BLUE detection solution (prepared according to the manufacture instruction) was dispensed into a new 384-well plate and followed by the transfer of 5 μl supernatant of the overnight incubated cell/sample mixtures. After incubation of 45 min at room temperature signals were measured with PHERASTAR (BMG) at OD 620-655 nm.
Dose response data were fitted with XLfit.

[3] = Protease stability in simulated intestinal fluids (FaSSIF) (Table 7); assay type: in vitro ADME; conditions: fassif with pancreatin, 37° C.; for remaining at 1 h, 1 µM: 60 min, read-out: Remaining percentage of peptide compound, FaSSIF 60 (min); for remaining at 2 h, 1 µM: 120 min, read-out: Remaining percentage of peptide compound, FaSSIF 120 (min); for remaining at 4 h, 1 µM: 240 min, read-out: Remaining percentage of peptide compound, FaSSIF 240 (min)
Description: (§2) Studies were carried out in simulated intestinal fluid (SIF) and simulated gastric fluid (SGF) to evaluate gastric stability of the peptide compounds disclosed herein.
Similarly, the term “Pancreatin-SIF” refers to a solution of simulated intestinal fluid containing pancreatin whereas “SIF-media” refers to a solution of simulated intestinal fluid without pancreatin. Pancreatin-SIF was prepared by dissolving 1 mg Pancreatin (MP Biomedicals) in 10 mL SIF media concentrate (PROSENSE).
(§3) Peptide compounds were first dissolved at 1 mM stock concentration in 0.01 HCl (+/−10% of DMSO) and were than diluted further with water to a stock concentration of 20 μM. Final peptide concentration in the incubation was 1 μM.
(§4) To 76 μL of the Pepsin-SGF buffer, 4 μL of the 20 μM peptide stock solution was added and incubated at 37° C. At each timepoint (0, 60, 120 and 240 minutes) the reaction was quenched with addition of 80 μL Ethanol (0.1% HCOOH). The samples were centrifuged for 20 minutes and an aliquot of the supernatant 100 μL were transferred to a LoBind-MTP plate and analyzed by LCMS/MS. The peak area response was calculated at each time point for each test compound. As internal reference, the peak area response of the same test compound at T0 was calculated. The percentage remaining at each timepoint was calculated based on the peak area response ratio of the test compound at T0. Time 0 was set to 100%, and all later timepoints were calculated relative to time 0.

[4] = Protease stability in simulated gastric fluids (FaSSGF) (Table 7); assay type: in vitro ADME; conditions: fassgf with pepsin, 60 min, 37° C., read-out: Remaining percentage of peptide compound, FaSSGF 60 (min)
Description: as §2
For clarification, the term “Pepsin-SGF” refers to a solution of simulated gastric fluid containing pepsin whereas “SGF media” refers to a solution of simulated gastric fluid without pepsin. Pepsin-SGF was prepared by dissolving 320 mg Pepsin (Merck Millipore) in 100 mL SGF media concentrate (PROSENSE).
as §3
as §4, with “(0,1%” for “(0.1%”
as §4

[5] = Solubility of peptide compounds in buffer formulations (Table 5); assay type: physicochemical; conditions: target 1 mg/ml
Description: Prior to the solubility measurement of a peptide batch, its purity was determined through UHPLC/MS method A.
as §1, with “solubility testing” for “stability assessment,”, “1” for “0.5”, “dimethyl sulfoxide” for “acetonitrile”
The following buffer systems were applied: • Solubility buffer system A) 50 mM HCl pH 1.2 • Solubility buffer system B) 50 mM phosphate buffer pH 6.5 • Solubility buffer system C) 50 mM phosphate buffer pH 7.4 • UHPLC-UV was performed using analytical method A after 2 hours of gentle agitation from the filtered (0.45 μm filter plates) solutions, which were obtained by 10 mins of centrifugation forced filtration at 1500 RCF (relative centrifugal acceleration).
The solubility was determined by the comparison of the UV peak area of 2 μL-injections of a buffered sample diluted 1:10 with a standard curve of a dimethyl sulfoxide reference sample of known concentration. The different extinction coefficients were taken into account for the calculation.

[6] = 50 mM phosphate buffer pH 6.5 + acetonitrile (3:1), read-out: Chemical stability (relative purity loss), Buffer pH 6.5
[7] = 50 mM phosphate buffer pH 7.4 + acetonitrile (3:1), read-out: Chemical stability (relative purity loss), Buffer pH 7.4
[8] = 50 mm hcl + acetonitrile, Buffer pH 1.1 (head; method: 50 mM HCl pH 1.2 + acetonitrile 3:1), read-out: Chemical stability (relative purity loss), Buffer pH 1.1
[9] = Buffer pH 1.1 (head; method: 50 mM HCl pH 1.2), 2 h agitation, read-out: Solubility, Buffer pH 1.1
[10] = aqueous buffer, 50 mM phosphate buffer pH 6.5, 2 h agitation, read-out: Solubility, Buffer pH 6.5
[11] = aqueous buffer, 50 mM phosphate buffer pH 7.4, 2 h agitation, read-out: Solubility, Buffer pH 7.4

| Compound | degraded at 24 h [1, 6] | degraded at 24 h [1, 7] | degraded at 24 h [1, 8] | IC50 [2] | remaining at 1 h, 1 µM [3] | remaining at 2 h, 1 µM [3] | remaining at 4 h, 1 µM [3] | remaining at 1 h, 1 µM [4] | solubility at 2 h [5, 9] | solubility at 2 h [5, 10] | solubility at 2 h [5, 11] |
| --- | --- | --- | --- | --- | --- | --- | --- | --- | --- | --- | --- |
| Cc1cccc2c(C[C@@H]3NC(=O)CCCCCCCCCCNC(=O)CC[C@@H](C(=O)N[C@@H](CC(N)=O)C(=O)N[C@@H](Cc4cccnc4)C(=O)N(C)CC(N)=O)NC(=O)C(C)(C)NC(=O)[C@H](Cc4ccc5ccccc5c4)NC(=O)[C@H](Cc4ccc(OCCN(C)C)cc4)NC(=O)C(C)(C)NC(=O)[C@H](CCC(N)=O)NC3=O)c[nH]c12 [compound 35] ([Aun][Trp(7-Me)]Q[Aib]Y(Me2NCH2CH2)[2Nal][Aib]EN[3Pal][Sar]-NH2; lactam N-8) | 0% | 0% | 7.4% | 0.6 nM | 89% | 88% | 87% | 86% | ≥ 870 µg/mL | 80 µg/mL (≈ 50.8 µM) | 40 µg/mL (≈ 25.4 µM) |
| Cc1cccc2c(C[C@@H]3NC(=O)CCCCN(C)CCCCN(C)CCCC[C@@H](C(=O)N[C@@H](CC(N)=O)C(=O)N[C@@H](Cc4cccnc4)C(=O)N(C)CC(N)=O)NC(=O)C(C)(C)NC(=O)[C@H](Cc4ccc5ccccc5c4)NC(=O)[C@H](Cc4ccc(OCCN(C)C)cc4)NC(=O)C4(CCOCC4)NC(=O)[C@H](CCC(N)=O)NC3=O)c[nH]c12 [compound 46] ([Trp(7-Me)]Q[Thp]Y(Me2NCH2CH2)[2Nal][Aib][Lys(Me,(CH2)4NMe(CH2)4CO)]N[3Pal][Sar]-NH2; lactam N-7) | 0% | 0% | 6% | 0.72 nM | 88% | 85% | 85% | 100% | ≥ 960 µg/mL | ≥ 1050 µg/mL | ≥ 890 µg/mL |
| Cc1cccc2c(C[C@@H]3NC(=O)CCCCCN(C)CCCCN(C)CCCC[C@@H](C(=O)N[C@@H](CC(N)=O)C(=O)N[C@@H](Cc4cccnc4)C(=O)N(C)CC(N)=O)NC(=O)C(C)(C)NC(=O)[C@H](Cc4ccc5ccccc5c4)NC(=O)[C@H](Cc4ccc(OCCN(C)C)cc4)NC(=O)C4(CCOCC4)NC(=O)[C@H](CCC(N)=O)NC3=O)c[nH]c12 [compound 31] ([Trp(7-Me)]Q[Thp]Y(Me2NCH2CH2)[2Nal][Aib][Lys(Me,(CH2)4NMe(CH2)5CO)]N[3Pal][Sar]-NH2; lactam N-7) | 0% | 0% | 6% | 0.71 nM | 93% | 91% | 90% | 100% | ≥ 1020 µg/mL | ≥ 1220 µg/mL | ≥ 1090 µg/mL |
| CN(C)CCOc1ccc(C[C@@H]2NC(=O)C3(CCOCC3)NC(=O)[C@H](CCC(N)=O)NC(=O)[C@H](Cc3cn(C)c4ccccc34)NC(=O)CCCCN(C)CCCCN(C)CCCC[C@@H](C(=O)NCC(=O)N[C@@H](Cc3cccnc3)C(=O)N(C)CC(N)=O)NC(=O)C(C)(C)NC(=O)[C@H](Cc3ccc4ccccc4c3)NC2=O)cc1 [compound 30] ([Trp(1-Me)]Q[Thp]Y(Me2NCH2CH2)[2Nal][Aib][Lys(Me,(CH2)4NMe(CH2)4CO)]G[3Pal][Sar]-NH2; lactam N-7) | 0% | 0% | 6.2% | 3.86 nM | 88% | 87% | 82% | 98% | ≥ 940 µg/mL | ≥ 890 µg/mL | 840 µg/mL (≈ 533 µM) |
